Reference: paper PMC8026479 (Cancer Chemotherapy and Pharmacology, 2021)
Where two headings read alike, the source gives them in different places.

What was measured:
[1] = Study G1T28-03 Part 1 plasma PK (with topotecan); assay type: in vivo, human; conditions: for Cmax / T1/2 / AUC(0-inf) / clearance / Vd / half-life: geometric mean; for Vd: read-out: Vz; for Tmax: range
Text: G1T28-03 (NCT02514447) was a multicentre Phase Ib/IIa study in patients with previously treated ES-SCLC [14]. […] Part 1 was a Phase Ib, open-label, dose-finding portion. Part 2 was a Phase IIa, randomized, double-blind, placebo-controlled portion. […] In Part 1 of the study, blood samples for PK analysis were collected at prespecified time points on Cycle 1 Day 1 and Cycle 1 Day 4 for all patients.

CD45+/CD3+ lymphocytes = assay: Ex vivo PHA-stimulated lymphocyte proliferation assay (G1T28-1-01); assay type: in vivo; conditions: Homo sapiens, 96 mg/m2, 4 h after end of infusion, read-out: maximum mean inhibition of proliferation of CD45+/CD3+ lymphocytes
Method: Healthy male and/or female subjects aged 18–60 years, with a body weight of ≥ 50 kg and a body mass index of 18–32 kg/m^2, were enrolled. […] Following a 1-h exposure to EdU, cells were harvested, processed, and analyzed by flow cytometry to measure the percentage of proliferation through EdU + incorporation in CD45 + /CD3 + cells (T lymphocytes).
Two bone marrow samples (one pre-dose and one at 32 h post-dose) were excluded from analysis owing to contamination with peripheral blood. c Relative percentage of total bone marrow cells in the S phase at 24 and 32 h post-trilaciclib dose (n = 10). Data shown are mean ± standard deviation.

[2] = tested on: total bone marrow cycling cells; parameters: method as in doi:10.1200/jco.2015.33.15_suppl.2529; conditions: dogs; cited from earlier work
[3] = tested on: transition rate constant from G1 to cycling for HSPCs; assay: Semi-mechanistic multi-compartment PK/PD model of hematopoiesis; parameters: species or system mouse, rat, and dog
Text: Owing to the invasive nature of the PD marker collection (i.e. bone marrow aspiration), a semi-mechanistic PK/PD model based on animal PK/PD data and human PK data was developed to guide the selection of an optimal dose level for bone marrow aspiration in humans during dose escalation in the Phase I first-in-human study. The model was constructed using PK data from four species (mouse, rat, dog, and human) and PD data from three species (mouse, rat, and dog; Online Resources 1 and 2).
The PK/multi-compartment PD model was based on a myelosuppression model previously published by Friberg et al., with modifications. […] In the model used in the current study, stem cells and progenitor cells were separated into two compartments, with experimental data measured for each compartment. […] Another important deviation from the Friberg model was the mechanism postulated for the homeostasis of the […] (PMNs). We postulated that the feedback mechanism has a set point target and that deviations from that target would accelerate (in the case of too few PMNs) or decelerate (in the case of too many PMNs) the transition of G1-phase cells to S-phase cells in the stem cell population.
The model was constructed in two stages. First, preclinical PK data (e.g. doses, routes, and schedule of administration, observed concentrations) were compiled and modeled by allometric scaling. A sequential PK/PD modeling approach (population PK parameters and data approach) was then employed in which a semi-mechanistic PD model with various physiological compartments was created, and specific assumptions entered (Online Resource 3). Traditional forward addition/backward elimination was used for PK modeling. […] Many parameters in this complex model could not be estimated and were fixed either to the literature values or values selected on the basis of discussions with domain experts and sensitivity analysis. In preclinical animal models, the PD analysis modeled bone marrow cells positive for 5′-ethynyl-2′-deoxyuridine (EdU) and peripheral neutrophil counts simultaneously. […]

[4] = ES-SCLC + topotecan, 280 mg/m2, Cycle 1 Day 1 (n = 7)
[5] = human, plasma, 200 mg/m2, ES-SCLC + topotecan, 200 mg/m2, Cycle 1 Day 4 (n = 9)
[6] = human, plasma, 280 mg/m2, ES-SCLC + topotecan, 280 mg/m2, Cycle 1 Day 1 (n = 7)
[7] = human, plasma, 280 mg/m2, ES-SCLC + topotecan, 280 mg/m2, Cycle 1 Day 4 (n = 7)
[8] = human, plasma, ES-SCLC + topotecan, 200 mg/m2, Cycle 1 Day 1 (n = 10)
[9] = human, plasma, ES-SCLC + topotecan, 240 mg/m2, Cycle 1 Day 1 (n = 14)
[10] = human, plasma, ES-SCLC + topotecan, 240 mg/m2, Cycle 1 Day 4 (n = 15)

Cmax ([1]; ES-SCLC + topotecan, 200 mg/m2, Cycle 1 Day 4 (n = 9)): 1060 ng/mL
T1/2 ([1]; ES-SCLC + topotecan, 240 mg/m2, Cycle 1 Day 1 (n = 14)): 407 min
Cmax [1, 4]: 1110 ng/mL
T1/2 [1, 4]: 443 min
accumulation on repeated daily dosing ([1]; G1T28-03 Part 1, 280 mg/m2, Day 1 vs Day 4, not observed at lower dose levels): resulted in drug accumulation
AUC(0-inf) ([1]; human, plasma, 200 mg/m2, ES-SCLC + topotecan, 200 mg/m2, Cycle 1 Day 1 (n = 10), read-out: AUC0-inf): 2410 ng·h/mL
clearance [1, 5]: 2850 mL/min
Vd [1, 5]: 2120 L
Tmax [1, 5]: 22.8 to 34.8 min
AUC(0-inf) ([1]; human, plasma, 240 mg/m2, ES-SCLC + topotecan, 240 mg/m2, Cycle 1 Day 1 (n = 14), read-out: AUC0-inf): 2910 ng·h/mL
Tmax ([1]; human, plasma, 240 mg/m2, ES-SCLC + topotecan, 240 mg/m2, Cycle 1 Day 1 (n = 14)): 24 to 42 min
AUC(0-inf) ([1]; human, plasma, 240 mg/m2, ES-SCLC + topotecan, 240 mg/m2, Cycle 1 Day 4 (n = 15), read-out: AUCtau (AUC0-inf, footnote a)): 2880 ng·h/mL
Vd ([1]; human, plasma, 240 mg/m2, ES-SCLC + topotecan, 240 mg/m2, Cycle 1 Day 4 (n = 15)): 1730 L
clearance [1, 6]: 2680 mL/min
AUC(0-inf) ([1]; human, plasma, 280 mg/m2, ES-SCLC + topotecan, 280 mg/m2, Cycle 1 Day 1 (n = 7), read-out: AUC0-inf): 3490 ng·h/mL
Vd [1, 6]: 1720 L
Tmax [1, 6]: 25.2 to 37.2 min
clearance [1, 7]: 2080 mL/min
AUC(0-inf) ([1]; human, plasma, 280 mg/m2, ES-SCLC + topotecan, 280 mg/m2, Cycle 1 Day 4 (n = 7), read-out: AUCtau (AUC0-inf, footnote a)): 4520 ng·h/mL
Vd [1, 7]: 1530 L
Tmax [1, 7]: 25.2 to 33 min
clearance [1, 8]: 2750 mL/min
half-life [1, 8]: 415 min
Vd [1, 8]: 1650 L
Tmax [1, 8]: 25.2 to 40.2 min
clearance [1, 9]: 2420 mL/min
Cmax ([1]; human, plasma, ES-SCLC + topotecan, 240 mg/m2, Cycle 1 Day 1 (n = 14), read-out: Cmax): 1270 ng/mL
Vd [1, 9]: 1430 L
Tmax [1, 10]: 22.8 to 90 min
half-life ([1]; human, plasma, ES-SCLC + topotecan, 200 mg/m2, Cycle 1 Day 4 (n = 9)): 514 min
clearance [1, 10]: 2470 mL/min
Cmax ([1]; human, plasma, ES-SCLC + topotecan, 240 mg/m2, Cycle 1 Day 4 (n = 15), read-out: Cmax): 1220 ng/mL
half-life ([1]; human, plasma, ES-SCLC + topotecan, 280 mg/m2, Cycle 1 Day 4 (n = 7)): 512 min
Cmax ([1]; human, plasma, ES-SCLC + topotecan, 280 mg/m2, Cycle 1 Day 4 (n = 7), read-out: Cmax): 2220 ng/mL
EC50, final PD model (concentration of G1T28 with 50% max effect) ([3]; plasma concentration, Emax effect on G1-to-cycling transition of HSPCs, model estimate): 5.9 ng/mL
EC90 (therapeutically active) ([3]; predicted from model EC50): approximately 50 ng/mL
Compound: CN1CCN(c2ccc(Nc3ncc4cc5n(c4n3)C3(CCCCC3)CNC5=O)nc2)CC1 [trilaciclib]
inhibition at 96 mg/m2 (CD45+/CD3+ lymphocytes): 37.2%
maximum decrease from baseline in total bone marrow cycling cells [2]: ~ 50%
